Earlier results as cited in PubChem BioAssay AID1259409 (Chemical Carcinogenesis Research Information System (CCRIS), 2018).

System: rodent chemically induced tumor inhibition, incidence and multiplicity
Test: CCRIS tumor inhibitor studies

C[C@]12CC[C@H](OS(=O)(=O)O)CC1=CC[C@@H]1[C@@H]2CC[C@]2(C)C(=O)CC[C@@H]12
tumour outcome (control, treated, inhibition, significance) (Carcinogen: 7,12-DIMETHYLBENZ[A]ANTHRACENE, 57-97-6, Dose [Inhibitor]: 0, 1 X 0.5 CM LONG SILASTIC IMPLANT 7 D PRIOR TO CARCINOGEN TREATMENT (STUDY DURATION: 111 D), Route [Inhibitor]: SUBCUTANEOUS IMPLANT, Species: RAT, Strain/Sex: SPRAGUE-DAWLEY/FEMALE, Target Tissue: Type of Lesion: MAMMARY GLAND: CARCINOMA, Dose [Carcinogen]: 20 MG IN 1 ML CORN OIL ADMINISTERED ON DAYS 50 TO 52 OF AGE, Promoter: NONE USED): 68%, 41%, 40%, not significant | tumour outcome (control, treated, inhibition, significance) (Carcinogen: 7,12-DIMETHYLBENZ[A]ANTHRACENE, 57-97-6, Dose [Inhibitor]: 0, 1 X 1 CM LONG SILASTIC IMPLANT 7 D PRIOR TO CARCINOGEN TREATMENT (STUDY DURATION: 111 D), Route [Inhibitor]: SUBCUTANEOUS IMPLANT, Species: RAT, Strain/Sex: SPRAGUE-DAWLEY/FEMALE, Target Tissue: Type of Lesion: MAMMARY GLAND: CARCINOMA, Dose [Carcinogen]: 20 MG IN 1 ML CORN OIL ADMINISTERED ON DAYS 50 TO 52 OF AGE, Promoter: NONE USED): 68%, 44%, 35%, not significant | tumour outcome (control, treated, inhibition, significance) (Carcinogen: 7,12-DIMETHYLBENZ[A]ANTHRACENE, 57-97-6, Dose [Inhibitor]: 0, 1 X 3 CM LONG SILASTIC IMPLANT 7 D PRIOR TO CARCINOGEN TREATMENT (STUDY DURATION: 111 D), Route [Inhibitor]: SUBCUTANEOUS IMPLANT, Species: RAT, Strain/Sex: SPRAGUE-DAWLEY/FEMALE, Target Tissue: Type of Lesion: MAMMARY GLAND: CARCINOMA, Dose [Carcinogen]: 20 MG IN 1 ML CORN OIL ADMINISTERED ON DAYS 50 TO 52 OF AGE, Promoter: NONE USED): 68%, 22%, 68%, p<0.01 | tumour outcome (control, treated, inhibition, significance) (Carcinogen: 7,12-DIMETHYLBENZ[A]ANTHRACENE, 57-97-6, Dose [Inhibitor]: 0, 3 X 3 CM LONG SILASTIC IMPLANT 7 D PRIOR TO CARCINOGEN TREATMENT (STUDY DURATION: 111 D), Route [Inhibitor]: SUBCUTANEOUS IMPLANT, Species: RAT, Strain/Sex: SPRAGUE-DAWLEY/FEMALE, Target Tissue: Type of Lesion: MAMMARY GLAND: CARCINOMA, Dose [Carcinogen]: 20 MG IN 1 ML CORN OIL ADMINISTERED ON DAYS 50 TO 52 OF AGE, Promoter: NONE USED): 68%, 11%, 84%, p<0.01 | tumour outcome (control, treated, inhibition, significance) (Carcinogen: 7,12-DIMETHYLBENZ[A]ANTHRACENE, 57-97-6, Dose [Inhibitor]: 0, 6 X 3 CM LONG SILASTIC IMPLANT 7 D PRIOR TO CARCINOGEN TREATMENT (STUDY DURATION: 111 D), Route [Inhibitor]: SUBCUTANEOUS IMPLANT, Species: RAT, Strain/Sex: SPRAGUE-DAWLEY/FEMALE, Target Tissue: Type of Lesion: MAMMARY GLAND: CARCINOMA, Dose [Carcinogen]: 20 MG IN 1 ML CORN OIL ADMINISTERED ON DAYS 50 TO 52 OF AGE, Promoter: NONE USED): 68%, 4%, 94%, p<0.01 | tumour outcome (control, treated, inhibition, significance) (Carcinogen: N-NITROBIS(2-OXOPROPYL)AMINE, 60599-38-4, Dose [Inhibitor]: 0, 350 MG/KG ONCE ON DAY 1 OF STUDY (STUDY DURATION: 70 D), Route [Inhibitor]: INTRAPERITONEAL, Species: HAMSTER, Strain/Sex: SYRIAN/FEMALE, Target Tissue: Type of Lesion: PANCREAS: CARCINOMA, Dose [Carcinogen]: 70 MG/KG ONCE ON DAY 1 OF STUDY THEN ONCE ON DAYS 17 AND 32 OF STUDY, Promoter: ETHIONINE, 67-21-0, METHIONINE, 63-68-3, Promoter: ETHIONINE, 67-21-0, METHIONINE, 63-68-3): 8/15 (53%), 6/15 (40%), 25%, not significant | tumour outcome (control, treated, inhibition, significance) (Carcinogen: N-NITROSOBIS(2-OXOPROPYL)AMINE, 60599-38-4, Dose [Inhibitor]: 0, 175 MG/KG ONCE ON DAY 1 OF STUDY (STUDY DURATION: 70 D), Route [Inhibitor]: INTRAPERITONEAL, Species: HAMSTER, Strain/Sex: SYRIAN/FEMALE, Target Tissue: Type of Lesion: PANCREAS: CARCINOMA, Dose [Carcinogen]: 70 MG/KG ONCE ON DAY 1 OF STUDY THEN ONCE ON DAYS 17 AND 32 OF STUDY, Promoter: ETHIONINE, 67-21-0, METHIONINE, 63-68-3, Promoter: ETHIONINE, 67-21-0, METHIONINE, 63-68-3): 8/15 (53%), 9/16 (56%), -7%, not significant

CCN(CC)C(=S)S
outcome (Carcinogen: DIETHYLNITROSAMINE, 55-18-5, Dose [Inhibitor]: 0, 50 MG/KG 1/WK FOR 5 WK ADMINISTERED 4 HR POST EACH CARCINOGEN DOSE (STUDY DURATION: 6 MO), Route [Inhibitor]: INTRAPERITONEAL, Species: RAT, Strain/Sex: BD6/FEMALE, Target Tissue: Type of Lesion: ESOPHAGUS: TUMOR, Dose [Carcinogen]: 80 MG/KG BW 1/WK FOR 5 WK, Promoter: NONE USED): 6%, 77, -1183%, p<0.001 | tumour outcome (control, treated, inhibition, significance) (Carcinogen: DIETHYLNITROSAMINE, 55-18-5, Dose [Inhibitor]: 0, 50 MG/KG 1/WK FOR 5 WK ADMINISTERED 4 HR POST EACH CARCINOGEN DOSE (STUDY DURATION: 6 MO), Route [Inhibitor]: INTRAPERITONEAL, Species: RAT, Strain/Sex: BD6/FEMALE, Target Tissue: Type of Lesion: LIVER: TUMOR, Dose [Carcinogen]: 80 MG/KG BW 1/WK FOR 5 WK, Promoter: NONE USED): 44%, 77%, -75%, not significant | tumour outcome (control, treated, inhibition, significance) (Carcinogen: DIETHYLNITROSAMINE, 55-18-5, Dose [Inhibitor]: 0, 50 MG/KG 1/WK FOR 5 WK ADMINISTERED 4 HR POST EACH CARCINOGEN TREATMENT (STUDY DURATION: 6 MO), Route [Inhibitor]: INTRAPERITONEAL, Species: RAT, Strain/Sex: BD6/FEMALE, Target Tissue: Type of Lesion: ESOPHAGUS: TUMOR, Dose [Carcinogen]: 80 MG/KG BW 1/WK FOR 5 WK, Promoter: NONE USED): 14%, 94%, -571%, p<0.001 | tumour outcome (control, treated, inhibition, significance) (Carcinogen: DIETHYLNITROSAMINE, 55-18-5, Dose [Inhibitor]: 0, 50 MG/KG 1/WK FOR 5 WK ADMINISTERED 4 HR POST EACH CARCINOGEN TREATMENT (STUDY DURATION: 6 MO), Route [Inhibitor]: INTRAPERITONEAL, Species: RAT, Strain/Sex: BD6/FEMALE, Target Tissue: Type of Lesion: LIVER: TUMOR, Dose [Carcinogen]: 80 MG/KG BW 1/WK FOR 5 WK, Promoter: NONE USED): 52%, 44%, 15%, not significant | tumour outcome (control, treated, inhibition, significance) (Carcinogen: DIETHYLNITROSAMINE, 55-18-5, Dose [Inhibitor]: 0, 50 MG/KG 1/WK FOR 5 WK ADMINISTERED 24 HR POST EACH CARCINOGEN TREATMENT (STUDY DURATION: 6 MO), Route [Inhibitor]: INTRAPERITONEAL, Species: RAT, Strain/Sex: BD6/FEMALE, Target Tissue: Type of Lesion: LIVER: TUMOR, Dose [Carcinogen]: 80 MG/KG BW 1/WK FOR 5 WK, Promoter: NONE USED): 52%, 32%, 38%, not significant | tumour outcome (control, treated, inhibition, significance) (Carcinogen: DIETHYLNITROSAMINE, 55-18-5, Dose [Inhibitor]: 0, 50 MG/KG 1/WK FOR 5 WK ADMINISTERED 24 HR POST EACH CARCINOGEN TREATMENT(STUDY DURATION: 6 MO), Route [Inhibitor]: INTRAPERITONEAL, Species: RAT, Strain/Sex: BD6/FEMALE, Target Tissue: Type of Lesion: ESOPHAGUS: TUMOR, Dose [Carcinogen]: 80 MG/KG BW 1/WK FOR 5 WK, Promoter: NONE USED): 14%, 4%, 71%, not significant

Oc1ccc(O)cc1
tumour outcome (control, treated, inhibition, significance) (Carcinogen: BENZO[A]PYRENE, 50-32-8, Dose [Inhibitor]: 5 MG IN 0.1 ML ACETONE 3/WK ADMINISTERED SIMULTANEOUSLY WITH CARCINOGEN FOR DURATION OF STUDY (STUDY DURATION: 368 D), Route [Inhibitor]: DERMAL, Species: MOUSE, Strain/Sex: ICR/FEMALE, Target Tissue: Type of Lesion: SKIN: PAPILLOMA, Dose [Carcinogen]: 5 UG IN 0.1 ML ACETONE 3/WK FOR DURATION OF STUDY, Promoter: NONE USED): 14/50 (28%), 7/50 (14%), 50%, not calculated | tumour outcome (control, treated, inhibition, significance) (Carcinogen: BENZO[A]PYRENE, 50-32-8, Dose [Inhibitor]: 5 MG IN 0.1 ML ACETONE 3/WK ADMINISTERED SIMULTANEOUSLY WITH CARCINOGEN FOR DURATION OF STUDY (STUDY DURATION: 368 D), Route [Inhibitor]: DERMAL, Species: MOUSE, Strain/Sex: ICR/FEMALE, Target Tissue: Type of Lesion: SKIN: SQUAMOUS CARCINOMA, Dose [Carcinogen]: 5 UG IN 0.1 ML ACETONE 3/WK FOR DURATION OF STUDY, Promoter: NONE USED): 10/50 (20%), 3/50 (6%), 70%, not calculated | tumour outcome (control, treated, inhibition, significance) (Carcinogen: N-ETHYL-N-HYDROXYETHYLNITROSAMINE, 13147-25-6, Dose [Inhibitor]: 0, 0.8% IN DIET FOR 36 WK BEGINNING 1 WK POST CARCINOGEN TREATMENT (STUDY DURATION: 40 WK), Route [Inhibitor]: ORAL, Species: RAT, Strain/Sex: WISTAR/MALE, Target Tissue: Type of Lesion: LIVER: HEPATOCELLULAR ADENOMA, Dose [Carcinogen]: 0.1% IN DRINKING WATER FOR 3 WK, Promoter: NONE USED): 10/17 (59%), 11/18 (61%), -3%, not significant | tumour outcome (control, treated, inhibition, significance) (Carcinogen: N-ETHYL-N-HYDROXYETHYLNITROSAMINE, 13147-25-6, Dose [Inhibitor]: 0, 0.8% IN DIET FOR 36 WK BEGINNING 1 WK POST CARCINOGEN TREATMENT (STUDY DURATION: 40 WK), Route [Inhibitor]: ORAL, Species: RAT, Strain/Sex: WISTAR/MALE, Target Tissue: Type of Lesion: LIVER: HEPATOCELLULAR CARCINOMA, Dose [Carcinogen]: 0.1% IN DRINKING WATER FOR 3 WK, Promoter: NONE USED): 7/17 (41%), 3/18 (17%), 56%, not significant

CC(C)(C)c1cc(CO)cc(C(C)(C)C)c1O
tumour outcome (control, treated, inhibition, significance) (Carcinogen: 7,12-DIMETHYLBENZ[A]ANTHRACENE, 57-97-6, Dose [Inhibitor]: 0, 200 MG/KG BW/D FOR 3 WK BEGINNING 2 WK PRIOR TO CARCINOGEN DOSE (STUDY DURATION: 24 WK), Route [Inhibitor]: INTRAPERITONEAL, Species: RAT, Strain/Sex: SPRAGUE-DAWLEY/FEMALE, Target Tissue: Type of Lesion: MAMMARY GLAND: TUMOR, Dose [Carcinogen]: 33.3 MG/KG BW IN 0.25 ML CORN OIL ONCE AT 50 D OF AGE, Promoter: NONE USED): 91%, 81%, 11%, not significant
